Data: patent US9834530B2, “3-furyl-2-cyano-2-acrylamide derivative, preparation method therefor, pharmaceutical composition and use thereof” (JENKEM TECHNOLOGY CO., LTD. (BEIJING), priority 2013, dated 2017)

Key:
[1] = system: AD fruit flies (elav/Y; UAS-Aβ42/+; P35*H29.3); assay: Pavlovian olfactory learning test in AD fruit flies (anti-senile dementia effect); assay type: in vivo; settings: for PI (mean value), learning and memory index: AD flies (P35*H29.3) given drug, final concentration 100 μM, 50 μl, day 2 to day 8, immediate memory tested day 9, PI=0 no memory, PI=100 all remember; for anti-senile dementia effect (in words, from Table 1): AD flies, T test against AD flies without administration: P>0.05, P<0.05 or P<0.01; for anti-senile dementia effect compared with JKF-006, JKF-027 and JKF-011: transgenic AD fruit flies, comparison with compounds of WO2012/103282
Description: In all tests, w^1118 (isoCJ1) was used as a control gene system, referred to as the “2U”. Progeny fruit flies with disease carrying P35 and H29.3 were obtained by integration of fruit flies carrying elav-GAL4^c155 (referred to as P35) and fruit flies carrying Aβ42 (UAS-Aβ42; referred to as H29.3). The first generation of fruit flies obtained by hybridization was used for behavioral testing. Details as follows:
All the fruit flies were reared in an environment with a temperature of 24° C., relative humidity of 40% RH. On the first day, newborn male 2U*H29.3 fruit flies and male AD fruit flies were picked out and put into glass bottles (there were about 120 fruit flies in each bottle). During administration period, these fruit flies were placed in an environment with a temperature of 28° C., relative humidity of 42% RH. From the second day to the eighth day, the fruit flies were transferred into new glass bottles 4 hours later after administration. All the fruit flies were placed in an environment with a temperature of 28° C., relative humidity of 42% RH until 1 hour before Pavlovian olfactory learning test.
On the first day of eclosion dispensation of drugs was conducted, the second day administration was carried out. The respective initial amount of compounds JK-01A, JK-03A, JK-05A, JK-06A and JK-07A was 10 mg, and the final concentration was 100 μM. Each group had two glass bottles of flies which were administered 50 μl within seven days (from the second day to the eighth day). During administration period, since some fruit flies died naturally or for other causes, about 100 flies were remained in each bottle when Pavlovian olfactory test was conducted on the ninth day.
The fruit flies were placed on the automatic training device for training. In training, a group of about 100 flies first contacted with one kind of odor (octanol or methyl cyclohexanol) accompanied by electric shocks (an electric shock of 60 V for 3.5 s at 1.5-s intervals) for 60 s, rested at 45-s intervals, and then contacted with another kind of odor (methyl cyclohexanol or octanol) without electric shocks for 60 s. To test the “immediate memory” (also called “learning”), flies after the training were immediately sent to the T-maze choice point, and allowed to choose between two kinds of odor, the learning and memory index PI (Performance index) in every test was calculated according to the number of flies choosing each kind of odor. PI=0 represented 50:50, meaning that fruit flies could not remember the odor accompanied by electric shocks, PI=100 represented that 100% of the flies remembered the odor accompanied by electric shocks. Learning test was carried out in a darkroom with a temperature of 25° C., relative humidity of 70% RH. The fruit flies entered the darkroom to be familiar with the environment 1 hour before test.
The test data was analyzed and plotted by employing GraphPad Prism.
In the activity test, the olfactory short-term memory impairment tests of healthy flies with the same genetic background and without administration, AD flies without administration, AD flies administrated positive or negative control drugs and AD flies administrated test drugs were carried out at the same time, their learning and memory indexes were calculated, and the learning and memory index of AD flies administrated test drugs was compared with those of healthy flies with the same genetic background, AD flies, AD flies administrated positive or negative control drugs to evaluate the anti-senile dementia effect of test compounds. A relatively higher learning and memory index of AD flies administrated test drugs represented a stronger anti-senile dementia effect of test compounds. […]

ICR mice = assay: Preliminary acute toxicity test; assay type: in vivo; settings: given twice 3 hours apart, 14 days observation
Description: Method: in the acute toxicity test, ICR mice were used and divided into six groups for administration, with 10 mice in each group and half male and half female. […] The control group was administrated the same volume of vehicle. Observation was conducted for 14 consecutive days after administration.

Row | Compound | PI (mean value), learning and memory index [1] | anti-senile dementia effect (in words, from Table 1) [1] | anti-senile dementia effect compared with JKF-006, JKF-027 and JKF-011 [1] | Test result (acute toxicity) (ICR mice; 4000 mg/kg/d p.o.) | Test result (acute toxicity) (ICR mice; 6000 mg/kg/d p.o.) | Test result (acute toxicity) (ICR mice; 5000 mg/kg/d p.o.)
1 | CC(/C=C/C=C(\C)C(=O)O)=C\C=C\C=C(C)\C=C\C=C(/C)C(=O)O [Crocetin, reference compound] | 40 | equivalent anti-senile dementia effects |  |  |  | 
2 | Cc1nc(Nc2ncc(C(=O)Nc3c(C)cccc3Cl)s2)cc(N2CCN(CCO)CC2)n1 [Dasatinib, reference compound] | 56 |  |  |  |  | 
3 | C#Cc1cccc(Nc2ncnc3cc(OCCOC)c(OCCOC)cc23)c1 [Erlotinib, reference compound] | 48 | had anti-senile dementia effects |  |  |  | 
4 | N#C/C(=C/c1ccc(CO)o1)C(=O)Nc1ccc(F)cc1 [JK-01A, 2-cyano-N-(4-fluorophenyl)-3-(5-hydroxymethyl-2-furyl)-2-acrylamide] | 65 | significant anti-senile dementia effects | more significant anti-senile dementia effects | No death, |  | 
5 | N#C/C(=C\c1ccc(CO)o1)C(=O)NCCc1c[nH]c2ccccc12 [JK-03A, 2-cyano-N-[2-(1H-indol-3-yl)ethyl]-3-(5-hydroxymethyl-2-furyl)-2-acrylamide] | 56 | significant anti-senile dementia effects | more significant anti-senile dementia effects |  | No death, | 
6 | N#C/C(=C\c1ccc(NCCOCCO)o1)C(=O)NCCc1c[nH]c2ccccc12 [JK-05A, 2-cyano-N-[2-(1H-3-indolyl)ethyl]-3-{5-[2-(2-hydroxyethoxy)ethylamino]-2-furyl}-2-acrylamide] | 40 | equivalent anti-senile dementia effects |  |  |  | No death,
7 | COCCOCCOCc1ccc(/C=C(\C#N)C(=O)Nc2ccc(F)cc2)o1 [JK-06A, 2-cyano-N-(4-fluorophenyl)-3-[5-(2,5,8-trioxa-nonyl-1-yl)furan-2-yl]-2-acrylamide] | 67 | significant anti-senile dementia effects | more significant anti-senile dementia effects |  | No death, | 
8 | N#CC(=Cc1ccc(COCCOCCOCCO)o1)C(=O)NCCc1c[nH]c2ccccc12 [JK-07A, 2-cyano-N-[2-(1H-3-indolyl)ethyl]-3-[5-(1,4,7,10-tetraoxa-undecane-11-yl)furan-2-yl]-2-acrylamide] | 58 | significant anti-senile dementia effects | more significant anti-senile dementia effects | No death, |  | 
9 | N#C/C(=C\c1ccc(-c2cc(C(=O)O)ccc2Cl)o1)C(=O)Nc1ccc(F)cc1 [JKF-006, reference compound] | 37 | equivalent anti-senile dementia effects |  |  |  | 
10 | N#C/C(=C\c1ccc(N2CCOCC2)o1)C(=O)NCCc1c[nH]c2ccccc12 [JKF-027, reference compound] | 54 | had anti-senile dementia effects |  |  |  | 
